In patent publication US6620828B2, “Thiazole compounds and pharmaceutical compositions for inhibiting protein kinases and methods for their use” (Agouron Pharmaceuticals, Inc., priority 1999, dated 2003):

Columns and labels:
CDK4/Cyclin D3 complex = target: T1, CDK4/Cyclin D3 complex (Homo sapiens, UniProt P11802); assay: CDK4/Cyclin D assay; format: biochemical; details: Table 2
T1 construct: made in house; host or cells: insect cells co-infected with baculovirus vectors
Outline: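 Insect-cell-expressed CDK4/cyclin D3 (50 nM) phosphorylating His-tagged Rb fragment (residues 386-928) with 25 μM [^32P]ATP in HEPES pH 7.4, MgCl2, 2% DMSO; 20 min at 30 °C, EDTA stop. Filter-captured 32P by phosphorimager; apparent Ki from competitive or tight-binding inhibition fits.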

[1] = system: lung cancer cells (line MV522); assay: Cancer cell proliferation (MV522) assay; format: cell-based; details: MV522, Table 2
LCK tyrosine kinase = target: T2, LCK tyrosine kinase (Homo sapiens, UniProt P06239, C224D/P223M); assay: LCK spectrophotometric assay; format: biochemical; details: Table 2; for LCK % inhibition @ 1: at 1 (head μM)
T2 construct: starting from amino acid residue 223 to the end of the protein at residue 509; made in house; host or cells: insect cells
T2 sequence (P06239 223-509 P223M/C224D): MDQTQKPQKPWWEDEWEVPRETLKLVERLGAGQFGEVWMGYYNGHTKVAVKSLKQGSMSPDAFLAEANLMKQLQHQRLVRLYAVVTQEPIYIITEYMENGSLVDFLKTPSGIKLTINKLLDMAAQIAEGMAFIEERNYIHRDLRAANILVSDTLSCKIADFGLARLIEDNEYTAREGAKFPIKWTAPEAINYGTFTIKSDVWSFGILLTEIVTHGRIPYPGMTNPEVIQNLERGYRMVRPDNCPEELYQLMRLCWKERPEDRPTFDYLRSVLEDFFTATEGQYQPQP
Experimental: LCK Construct for Assay: The LCK tyrosine kinase was expressed in insect cells as an N-terminal deletion starting from amino acid residue 223 to the end of the protein at residue 509, with the following two amino acid substitutions at the N-terminus: […] and C224D.
The spectrophotometric assay was carried out as described above for VEGF-R2, except for the following changes in concentration: LCK=60 nM, MgCl2=0 mM, poly(E4Y1)=20 mM.

CDK2/Cyclin A complex = CDK2/Cyclin A complex (Homo sapiens, UniProt P24941); assay: CDK2/Cyclin A assay; format: biochemical; details: Table 2
Outline: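 Radiometric assay: 150 nM CDK2/cyclin A (insect-cell CDK2, truncated cyclin A) phosphorylates His-tagged Rb fragment (residues 386-928) with 25 μM ATP plus [32P]ATP, pH 7.4 HEPES, 2% DMSO, 30 °C for 20 min. Filter-captured product counted by phosphorimager; apparent Ki from competitive or tight-binding inhibition fits.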

[2] = system: human umbilical vein endothelial cells (HUVEC); assay: HUVEC proliferation assay; format: cell-based; details: Homo sapiens, HUVEC, Table 2
Outline: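 Exponentially growing HUVEC were serum-starved 24 h (F12K + 1% FBS), pre-treated 1 h with compound (0.1% DMSO final), then stimulated with 6 ng/ml VEGF. Proliferation was read 72 h later by MTT reduction (A595). IC50 came from seven 0.5-log concentrations in triplicate; screens gave % inhibition relative to VEGF-only and starved wells.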

T1 sequence (P11802 whole entry): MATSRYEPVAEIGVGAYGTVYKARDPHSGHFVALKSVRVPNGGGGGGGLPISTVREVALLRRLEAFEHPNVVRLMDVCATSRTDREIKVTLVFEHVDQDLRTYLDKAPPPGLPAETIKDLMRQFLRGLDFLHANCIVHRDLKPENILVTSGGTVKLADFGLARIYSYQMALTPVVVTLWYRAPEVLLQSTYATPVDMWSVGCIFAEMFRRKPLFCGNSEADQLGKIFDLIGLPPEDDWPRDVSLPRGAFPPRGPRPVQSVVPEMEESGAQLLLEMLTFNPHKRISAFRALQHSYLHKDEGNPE
T1 sequence (P30281 whole entry partner): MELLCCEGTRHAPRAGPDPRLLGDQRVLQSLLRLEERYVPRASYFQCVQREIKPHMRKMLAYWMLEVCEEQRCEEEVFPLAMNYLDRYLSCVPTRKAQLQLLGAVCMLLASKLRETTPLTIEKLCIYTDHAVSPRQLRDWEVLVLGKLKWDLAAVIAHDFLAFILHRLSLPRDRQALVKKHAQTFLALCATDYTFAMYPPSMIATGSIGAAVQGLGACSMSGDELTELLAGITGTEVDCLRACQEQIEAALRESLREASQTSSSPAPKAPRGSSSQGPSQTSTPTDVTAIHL

Ki (CDK4/Cyclin D3 complex) [µM] | IC50 [1] [µM] | LCK % inhibition @ 1 (LCK tyrosine kinase) [% @] | Ki (CDK2/Cyclin A complex) [µM] | LCK % inhibition @ 5 (LCK tyrosine kinase; at 5 (head μM)) [% @] | Compound | IC50 [2] [µM]
29 | > 10 | 21 | 2.1 |  | COc1cc(Nc2nc(N)c(-c3nc(-c4cccc(O)c4)cs3)s2)cc(OC)c1OC [A(17), 3-[4′-Amino-2′-(3,4,5-trimethoxy-phenylamino)-[2,5′]bithiazolyl-4-yl]-phenol] | > 1
13 | > 10 |  | 6.4 | 10 | CCCNc1nc(N)c(-c2nc(-c3cccc(O)c3)cs2)s1 [A(29), 3-(4′-Amino-2′-propylamino-[2,5′]bithiazolyl-4-yl)-phenol] | > 1
6.7 | 5.4 | 42 | 0.62 |  | COc1cc(Nc2nc(N)c(-c3nc(-c4cccc(O)c4)no3)s2)cc(OC)c1OC [K(1), 3-{5-[4-Amino-2-(3,4,5-trimethoxy-phenylamino)-thiazol-5-yl]-[1,2,4]oxadiazol-3-yl}-phenol] | 0.95
